Data taken from patent US20070248954A1, “Primers for Use in Detecting Beta-Lactamases” (Creighton University, priority 2003, published 2007).
Values after ≈ are worked out from the molar mass of the structure shown.

Legend:
[1] = test system: Twenty two isolates representing E. coli (Ec), Citrobacter freundii (Cf) and C. koseri (Ck); experiment: MICs of the 22 isolates of Example 1; assay type: cell-based; details: read-out: MICs; all 22 isolates (E. coli, C. freundii, C. koseri)
Description: Twenty two isolates representing E. coli (Ec), Citrobacter freundii (Cf) and C. koseri (Ck) were studied. All of these strains had MICs of greater than (>) 32 micrograms per milliliter […] of cefotaxime, >16 mg/ml of cefepime, and ranged between 1 to 8 mg/ml for ceftazidime. Dendrogram analysis of CTX-M genes deposited in GenBank was performed, and based on these analyses, known CTX-M-genes were divided into four families. Based on these families, four sets of family-specific primers were designed. Specificity of the primers was tested on all 22 of the isolates.

[2] = test system: K. pneumoniae (n = 2), Positive for CTX-M-1V group; experiment: ESBL screening of clinical strains; assay type: cell-based; details: drug 1 μg/ml
Description: (§1) A total of 175 isolates representing E. coli (n=168), K. pneumoniae (n=7) were studied. Minimum inhibitory concentrations (MICs) to the following drugs were determined by Vitek (Vitek AMS; bioMérieux Vitek 5 Systems Inc., Hazelwood, Mo.); piperacillin (PIP), piperacillin/tazobactam (TZP), cefpodoxime (CPD), cefotaxime (CTX), ceftazidime (CAZ). The quality control strains used for this study were E. coli ATCC 25922, E. coli 35218, Pseudomonas aeruginosa ATCC 27853, Staphlylococcus aureus ATCC 29213, and K. pneumoniae ATCC 700603. Throughout this study, results were interpreted using National Committee for Clinical Laboratory Standards (NCCLS) criteria for broth dilution.
(§2) The presence of ESBLs was evaluated in both the control strains and the recent clinical isolates. Screening was performed with Vitek (Vitek AMS; bioMerieux Vitek Systems, Inc., Hazelwood, Mo.) using 1 μg/ml CPD, CAZ, and CTX. Screening and disk confirmation tests using CTX (30 μg) and CAZ (30 μg) disks in combination with 10 μg clavulanate (CLA) were performed and interpreted using NCCLS criteria for ESBL screening and disk confirmation tests. Disks for_ESBL confirmation tests were obtained from Oxoid Inc. (Nepean, Ontario, Canada). K. pneumoniae ATCC 700603 and E. coli ATCC 25922 were used as positive and negative controls, respectively.

[3] = test system: E. coli (n = 93), Positive for CTX-M-1V group; experiment: ESBL screening of clinical strains; assay type: cell-based; details: drug 1 μg/ml
Description: as §1, §2

[4] = test system: E. coli (n = 24), Positive for CTX-M-1 group; experiment: ESBL screening of clinical strains; assay type: cell-based; details: drug 1 μg/ml
Description: as §1, §2

[5] = test system: E. coli (n = 51), PCR for blaCTXM genes Negative; experiment: ESBL screening of clinical strains; assay type: cell-based; details: drug 1 μg/ml
Description: as §1, §2

[6] = test system: K. pneumoniae (n = 5), PCR for blaCTXM genes Negative; experiment: ESBL screening of clinical strains; assay type: cell-based; details: drug 1 μg/ml
Description: as §1, §2

ESBL-producing strains = details: drug used as an initial screen; cited from earlier work
[7] = test system: Total (n = 175) clinical strains producing extended-spectrum β-lactamases; experiment: ESBL screening of clinical strains; assay type: cell-based, E. coli, K. pneumoniae; details: drug 1 μg/ml
Description: as §1, §2

[8] = test system: DNA template prepared from control strains known to produce specific CTX-M β-lactamases or ESBLs other than CTX-M β-lactamases; experiment: PCR specificity test of designed primers on control strains; details: for amplification with the rest of the control strains: DNA template from all other control strains in Table 1; for size of single amplified product: DNA template from the control strains of the primer set's own group
Source text: Once the primers are designed, their specificity can be tested using the following method. Depending on the target nucleic acid of clinical interest, a nucleic acid is isolated from a bacterial control strain known to express or contain the resistance gene. This control strain, as used herein, refers to a “positive control” nucleic acid (typically, DNA). Additionally, a “negative control” nucleic acid (typically, DNA) can be isolated from one or more bacterial strains known to express a resistance gene other than the target gene of interest. Using the polymerase chain reaction, the designed primers are employed in a detection method, as described above, and used in the positive and negative control samples and in at least one test sample suspected of containing the resistance gene of interest. The positive and negative controls provide an effective and qualitative (or grossly quantitative) means by which to establish the presence or the absence of the gene of interest of test clinical samples. It should be recognized that with a small percentage of primer pairs, possible cross-reactivity with other β-lactamase genes might be observed. However, the size and/or intensity of any cross-reactive amplified product will be considerably different and can therefore be readily evaluated and dismissed as a negative result.
Polymerase Chain Reaction (PCR) amplifications were carried out on a Thermal Cycler 9600 instrument (Applied Biosystems, Norwalk, Conn.) as indicated in Example 1, with the primers, the size of the expected amplification product, and annealing temperatures used for the PCR as listed in Table 1. Magnesium chloride concentrations were 1.5 mM for all PCR reactions.
The designed primers were tested for specificity in separate PCR reactions using DNA template prepared from control strains known to produce specific CTX-M β-lactamases or strains producing ESBLs other than CTX-M β-lactamases (Tables 1 and 2, FIG. 3). […] Group II primers amplified a single 351 bp fragment when DNA template was prepared from control strains Rio-4, 34, and CT1.
Group IV primers amplified a 474 bp product from DNA prepared from strains 785D, EC984167, CF1, Rio-6, BM4493, ILT-2, and ILT-3. […] An isolate producing CTX-M-25 was requested but not obtained. Therefore, we were unable to examine the ability of the Group III primer set to amplify blaCTX-M-25.

Row | Compound | MIC [1] [µg/mL] | Screening, No positive [2] | Screening, No positive (%) [2] | Screening, No positive [3] | Screening, No positive (%) [3] | Screening, No positive [4] | Screening, No positive (%) [4] | Screening, No positive [5] | Screening, No positive (%) [5] | Screening, No positive [6] | Screening, No positive (%) [6] | Screening, No positive [7] | Screening, No positive (%) [7] | amplification with the rest of the control strains [8] | size of single amplified product [8] [bp] | other results
1 | CC(C)(O/N=C(\C(=O)N[C@@H]1C(=O)N2C(C(=O)[O-])=C(C[n+]3ccccc3)CS[C@H]12)c1csc(N)n1)C(=O)O [CAZ, ceftazidime] | 1 to 8 (≈ 1.83 to 14.6 µM) | 0 | (0%) | 71 | (76%) | 24 | (100%) | 51 | (100%) | 5 | (100%) | 151 | (86%) |  |  | ESBL-producing strains not detected (ESBL-producing strains): about 14%
2 | COCC1=C(C(=O)O)N2C(=O)[C@@H](NC(=O)/C(=N\OC)c3csc(N)n3)[C@H]2SC1 [CPD, cefpodoxime] |  | 2 | (100%) | 93 | (100%) | 24 | (100%) | 51 | (100%) | 5 | (100%) | 175 | (100%) |  |  | 
3 | CO/N=C(\C(=O)N[C@@H]1C(=O)N2C(C(=O)O)=C(COC(C)=O)CS[C@H]12)c1csc(N)n1 [CTX, cefotaxime] | > 32 | 2 | (100%) | 93 | (100%) | 24 | (100%) | 48 | (94%) | 4 | (80%) | 171 | (98%) |  |  | 
4 | CO/N=C(\C(=O)N[C@@H]1C(=O)N2C(C(=O)[O-])=C(C[N+]3(C)CCCC3)CS[C@H]12)c1csc(N)n1 [cefepime] | > 16 |  |  |  |  |  |  |  |  |  |  |  |  |  |  | 
5 | CTX-M-I group: primer pair of SEQ ID NO:1 and SEQ ID NO:2, Group 1 CTX-M β-lactamases, 499 base pair amplicon (DNA 1 GACGATGTCACTGGCTGAGC; DNA 2 AGCCGCCGACGCTAATACA; PCR primers, chemistry not given here, further chemistry not given here) |  |  |  |  |  |  |  |  |  |  |  |  |  | No amplified product | 499 | 
6 | CTX-M-II group: primer pair of SEQ ID NO:3 and SEQ ID NO:4, Group 2 CTX-M β-lactamases, 351 base pair amplicon (DNA 1 GCGACCTGGTTAACTACAATCC; DNA 2 CGGTAGTATTGCCCTTAAGCC; PCR primers, chemistry not given here, further chemistry not given here) |  |  |  |  |  |  |  |  |  |  |  |  |  | no amplification product | 351 | 
7 | CTX-M-III group: primer pair of SEQ ID NO:7 and SEQ ID NO:8, Group 3 or Group 5 CTX-M β-lactamases, 307 base pair amplicon (DNA 1 CGCTTTGCCATGTGCAGCACC; DNA 2 GCTCAGTACGATCGAGCC; PCR primers, chemistry not given here, further chemistry not given here) |  |  |  |  |  |  |  |  |  |  |  |  |  |  |  | control strains whose DNA was amplified ([8]; all control strains of Table 1): amplification of DNA prepared from only one strain, Rio-3
8 | CTX-M-VI group: primer pair of SEQ ID NO:5 and SEQ ID NO:6, Group 4 CTX-M β-lactamases, 474 base pair amplicon (DNA 1 GCTGGAGAAAAGCAGCGGAG; DNA 2 GTAAGCTGACGCAACGTCTG; PCR primers, chemistry not given here, further chemistry not given here) |  |  |  |  |  |  |  |  |  |  |  |  |  | no amplification of DNA | 474 | 
